From patent US8486948B2, “Piperazinodihydrothienopyrimidine derivatives” (Boehringer Ingelheim International GmbH, priority 2007, dated 2013)

Target: PDE4B (Homo sapiens, UniProt Q07343)
Experiment: Scintillation Proximity (SPA) assay, inhibition of PDE4B at 1 μM
Format: biochemical
Settings: test substance 1 μM, one hour incubation with [H3]-cAMP at 30° C.
Method: The inhibitions (in %) at 1 μM of the individual Example substances are included in the following Tables of Examples and were determined as follows:
The Scintilation Proximity (SPA) Assays (GE Healthcare, No. TRKQ7090) make use of the different affinities of cyclic 3″-5″-adenosine monophosphate (cAMP, low affinity) and linear 5′-adenosine monophosphate (AMP, high affinity) for yttrium silicate scintillator beads. The cAMP specific phosphodiesterase (PDE) PDE4B cleaves the 3′-phosphoester bond of the tritium-labelled [H3]-cAMP to form the [H3]-5′-AMP. Because of its higher affinity for the scintillator beads this [H3]-AMP accumulates on the beads and causes scintillation events (flashes of light) which are measured in a Wallac Microbeta Scintillation Counter.
The test starts with one hour's incubation of [H3]-cAMP with the PDE4B enzyme in assay buffer at 30° C., once with the Example substance that is to be tested (in a concentration of 1 μM) and once without the Example substance that is to be tested. After this incubation the reaction is stopped by the addition of the beads. The beads are given an opportunity to settle over the next 45 minutes, then they are measured in the Scintillation Counter. If the substance is capable of inhibiting the enzymatic activity of the PDE4B, less [H3]-AMP is formed during the incubation phase and fewer scintillation events can be measured.

Chain of PDE4B (Q07343 whole entry, species assumed): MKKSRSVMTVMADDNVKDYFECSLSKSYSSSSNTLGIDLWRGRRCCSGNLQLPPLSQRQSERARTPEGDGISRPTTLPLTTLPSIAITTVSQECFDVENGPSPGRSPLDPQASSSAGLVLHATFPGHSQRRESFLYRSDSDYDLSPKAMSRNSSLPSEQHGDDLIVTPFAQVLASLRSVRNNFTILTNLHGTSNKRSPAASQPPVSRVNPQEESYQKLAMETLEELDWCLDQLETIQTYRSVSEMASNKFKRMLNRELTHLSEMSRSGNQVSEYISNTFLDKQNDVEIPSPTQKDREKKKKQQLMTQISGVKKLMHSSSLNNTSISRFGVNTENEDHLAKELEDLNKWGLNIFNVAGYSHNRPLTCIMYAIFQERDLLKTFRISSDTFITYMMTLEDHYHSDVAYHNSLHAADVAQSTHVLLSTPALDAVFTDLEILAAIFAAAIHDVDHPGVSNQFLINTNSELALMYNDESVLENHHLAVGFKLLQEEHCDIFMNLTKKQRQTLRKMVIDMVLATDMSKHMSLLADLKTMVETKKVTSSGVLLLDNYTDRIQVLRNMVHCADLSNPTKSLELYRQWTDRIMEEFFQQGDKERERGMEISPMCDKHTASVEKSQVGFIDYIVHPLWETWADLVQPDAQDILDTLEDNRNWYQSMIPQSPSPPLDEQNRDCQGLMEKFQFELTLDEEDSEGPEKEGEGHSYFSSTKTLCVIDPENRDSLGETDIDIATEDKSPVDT

Row | SMILES | inhibition at 1 µM (Table A) [%] | other results
1 | CN(C(=O)c1cn2c(n1)CN(c1nc3c(c(NC4CCOCC4)n1)[S+]([O-])CC3)CC2)C1CCOCC1 (stereo not drawn) [Example 54] |  | inhibition at 1 µM (Table D): 94%
2 | CCOC(=O)c1cn2c(n1)CN(c1nc3c(c(NC4(CO)CC4)n1)[S+]([O-])CC3)CC2 (stereo not drawn) [Example 30] |  | inhibition at 1 µM (Table C): 95%
3 | Cc1cn(C)nc1CN(C)C(=O)c1cn2c(n1)CN(c1nc3c(c(NC4CCOCC4)n1)[S+]([O-])CC3)CC2 (stereo not drawn) [Example 56] |  | inhibition at 1 µM (Table D): 94%
4 | CC(C)[C@H](CO)Nc1nc(N2CCN(c3ccc(Cl)cc3)C[C@H]2C)nc2c1[S+]([O-])CC2 (stereo partly drawn) [Example 1, (R)-2-{2-[(R)-4-(4-chlorophenyl)-2-methylpiperazin-1-yl]-5-oxo-6,7-dihydro-5H-5λ^4-thieno[3,2-d]pyrimidin-4-ylamino}-3-methylbutan-1-ol] | 84 | 
5 | [O-][S+]1CCc2nc(N3CC4CC3CN4c3cccc(F)c3)nc(NC3(CO)CC3)c21 (stereo not drawn) [Example 23] | 93 | 
6 | [O-][S+]1CCc2nc(N3CCn4c(Cc5ccc(Cl)c(Cl)c5)nnc4C3)nc(NC3CCOCC3)c21 (stereo not drawn) [Example 36] |  | inhibition at 1 µM (Table C): 93%

Now from value to compound, other results behind:

Row | inhibition at 1 µM (Table A) [%] | SMILES | other results
7 | 96 | CN1C[C@@H](Nc2nc(N3C[C@H]4CC3CN4c3ccc(Cl)cc3)nc3c2[S+]([O-])CC3)CCC1=O (stereo partly drawn) [Example 9, (S)-5-{2-[5-(4-chlorophenyl)-2,5-diazabicyclo[2,2,1]hept-2-yl]-5-oxo-6,7-dihydro-5H-5λ^4-thieno[3,2-d]pyrimidin-4-ylamino}-1-methylpiperidin-2-one] | 
8 | 97 | [O-][S+]1CCc2nc(N3C[C@H]4CC3CN4c3nc4ccccc4o3)nc(NC3CCOCC3)c21 (stereo partly drawn) [Example 29, [2-(5-benzoxazol-2-yl-2,5-diazabicyclo[2,2,1]hept-2-yl)-5-oxo-6,7-dihydro-5H-5λ^4-thieno[3,2-d]pyrimidin-4-yl]-(tetrahydropyran-4-yl)-amine] | 
9 | 95 | [O-][S+]1CCc2nc(N3CC4CC3CN4c3ccc(Br)cc3)nc(NC3CCOCC3)c21 (stereo not drawn) [Example 20] | 
